Test results from US20170035793A1, “Use of P2X Purinergic Receptor Agonists to Enhance Insulin Secretion In Pancreatic Beta Cells” (priority 2010, published 2017).
Entries after “also recorded” stand apart in the source; their conditions may differ.

Columns and labels:
human P2X3 receptor = target: T1, human P2X3 receptor (Homo sapiens, UniProt P56373); conditions: read-out: reported EC50 for the human P2X3 receptor; cited from earlier work
T1 sequence (P56373 1-397): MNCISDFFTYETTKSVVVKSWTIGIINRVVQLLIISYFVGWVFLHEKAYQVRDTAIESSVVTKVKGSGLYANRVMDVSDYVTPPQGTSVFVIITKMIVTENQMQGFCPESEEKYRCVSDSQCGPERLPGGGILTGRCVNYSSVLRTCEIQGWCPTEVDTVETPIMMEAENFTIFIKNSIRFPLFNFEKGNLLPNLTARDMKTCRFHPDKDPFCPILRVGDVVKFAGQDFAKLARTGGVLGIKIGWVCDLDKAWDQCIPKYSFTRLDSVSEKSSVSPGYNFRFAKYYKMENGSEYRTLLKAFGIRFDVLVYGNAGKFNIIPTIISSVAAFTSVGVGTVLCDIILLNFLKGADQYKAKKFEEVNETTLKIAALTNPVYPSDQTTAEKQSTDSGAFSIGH

human islets [1] = assay: ATP-induced (or α,β meATP-induced) insulin secretion in human islets with antagonists or blockers; type: cell-based; conditions: nominal 0 Ca2+ (+1 mM EGTA), ATP 10 μM, α,β meATP 100 μM
Source text: (§1) Islet Isolation. Islets were isolated as previously described (57). Monkey islets were isolated from cynomolgus monkeys (Macacca fascicularis) >4 years of age at the time of pancreas procurement, as previously described (58). Pig pancreata were procured from the local slaughterhouse. Mice (C57BL/6) and rat (Lewis rat; Harlan) islets were isolated using a rodent-islet isolation technique (59). All animal protocols were approved by the University of Miami Care and Use Committee. Human pancreatic islets were obtained from the Human Islet Cell Processing Facility at the Diabetes Research Institute, University of Miami Miller School of Medicine or from the Islet Cell Resource basic science islet distribution program, Islet Cell Resource Centers (ICRs) Consortium, Division of Clinical Research, National Center for Research Resources, National Institutes of Health. Human islets were dissociated into single cells using enzyme-free cell dissociation buffer (Invitrogen). Islets and islets cells from Q:1 all species were cultured identically (37° C. and 5% CO2) inCMRL Q:2 medium-1066 (Invitrogen), niacinamide (10 mM; Sigma), ITS (BD Biosciences), Zn2SO4 (15 μM, Sigma), GlutaMAX (2 mM; Invitrogen), Hepes (25 mM; Sigma), FBS (10%; Invitrogen), and penicillinstreptomycin (100 IU/mL-100 μg/mL; Invitrogen).
Insulin and Glucagon Secretion. Insulin and glucagon secretion were measured as previously described (8, 36). A high-capacity automated perifusion system was developed to dynamically measure hormone secretion from pancreatic islets. A low pulsatility peristaltic pump pushed Hepes-buffered solution (125 mM NaCl, 5.9 mM KCl, 2.56 mM CaCl2, 1 mM MgCl2, 25 mM Hepes, and 0.1% BSA, pH 7.4 at a perifusion rate of 100 μL/min) through a column containing 100 pancreatic islets immobilized in Bio-Gel P-4 Gel (BioRad). Except when otherwise stated, glucose concentration was adjusted to 3 mM for all experiments. Stimuli were applied with the perifusion buffer. The perifusate was collected in an automatic fraction collector designed for a 96-well plate format. The columns containing the islets and the perifusion solutions were kept at 37° C., and the perifusate in the collecting plate was kept at <4° C. Perifusates were collected every 1 min. Hormone release in the perifusate was determined with the human or mouse Endocrine LINCOplex Kit following manufacturer's instructions (Lincoresearch). Human islet preparations varied considerably in their quality. Thus, the magnitudes of the responses to different stimuli were compared with the same recording or using recordings from the same preparation.

pig islets [2] = assay: Insulin secretion from perifused pig islets; type: cell-based; conditions: 1-1,000 μM
Source text: as §1, with “Islets and islets cells from Q:1 all species were cultured identically (37° C. and 5% CO2) inCMRL Q:2 medium-1066 (Invitrogen), niacinamide (10 mM; Sigma), ITS (BD Biosciences), Zn2SO4 (15 μM, Sigma), GlutaMAX (2 mM; Invitrogen), Hepes (25 mM; Sigma), FBS (10%; Invitrogen), and penicillinstreptomycin (100 IU/mL-100 μg/mL; Invitrogen).” left out
(§2) Insulin and Glucagon Secretion. Insulin and glucagon secretion were measured as previously described (8, 36). […] Hormone release in the perifusate was determined with the human or mouse Endocrine LINCOplex Kit following manufacturer's instructions (Lincoresearch). […]

P2X7 receptors = target: T2, P2X7 receptors (Homo sapiens, UniProt Q99572); conditions: cited from earlier work
T2 sequence (Q99572 1-595): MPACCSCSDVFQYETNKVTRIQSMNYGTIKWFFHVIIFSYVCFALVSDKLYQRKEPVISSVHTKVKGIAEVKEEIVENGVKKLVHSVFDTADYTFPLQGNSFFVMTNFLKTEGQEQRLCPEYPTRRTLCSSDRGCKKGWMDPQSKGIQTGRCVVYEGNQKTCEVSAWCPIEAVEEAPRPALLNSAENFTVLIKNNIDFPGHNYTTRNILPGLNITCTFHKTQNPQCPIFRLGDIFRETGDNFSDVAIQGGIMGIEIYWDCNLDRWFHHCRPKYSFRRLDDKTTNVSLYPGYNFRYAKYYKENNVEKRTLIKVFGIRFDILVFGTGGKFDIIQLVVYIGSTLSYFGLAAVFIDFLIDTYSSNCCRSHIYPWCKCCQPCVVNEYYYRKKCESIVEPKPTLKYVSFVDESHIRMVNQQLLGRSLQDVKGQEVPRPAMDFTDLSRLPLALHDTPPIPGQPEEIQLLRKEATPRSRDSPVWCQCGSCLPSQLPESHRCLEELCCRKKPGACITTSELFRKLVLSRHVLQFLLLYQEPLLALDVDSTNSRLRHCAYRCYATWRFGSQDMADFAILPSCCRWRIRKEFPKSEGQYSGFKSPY

pig islets [3] = assay: Glucagon secretion from perifused pig islets; type: cell-based
Source text: as §1, with “Islets and islets cells from Q:1 all species were cultured identically (37° C. and 5% CO2) inCMRL Q:2 medium-1066 (Invitrogen), niacinamide (10 mM; Sigma), ITS (BD Biosciences), Zn2SO4 (15 μM, Sigma), GlutaMAX (2 mM; Invitrogen), Hepes (25 mM; Sigma), FBS (10%; Invitrogen), and penicillinstreptomycin (100 IU/mL-100 μg/mL; Invitrogen).” left out
as §2

human β cells = assay: [Ca2+]i imaging (Fura-2) of glucose-responsive human islet cells; type: cell-based; conditions: ATPγS 50 μM
Source text: as §1
[Ca^2+]i; Imaging. [Ca^2+]i imaging was performed as previously described (8, 36). Dispersed islet cells were immersed in Hepes-buffered solution (125 mMNaCl, 5.9 mMKCl, 2.56 mMCaCl2, 1 mMMgCl2, 25 mMHepes, and 0.1% BSA, pH7.4). Glucose was added to give a final concentration of 3 mM. Islets or dispersed islet cells were incubated in Fura-2 AM (2 μM; 1 h) and placed in a closed small volume imaging chamber (Warner Instruments). Stimuli were applied with the bathing solution. Islets loaded with Fura-2 were excited alternatively at 340 and 380 nm with a monochromator light source (Cairn Research Optoscan Monochromator; Cairn Research Ltd). Images were acquired with a Hamamatsu camera (Hamamatsu) attached to a Zeiss Axiovert 200 microscope (Carl Zeiss). Changes in the 340/380 fluorescence emission ratio over time were analyzed in individual islets and dispersed cells using Kinetic Imaging AQM Advance software (Kinetic Imaging). Peak changes in the fluorescence ratio constituted the response amplitude. Beta cells were distinguished from other endocrine cells by their [Ca^2+]i, responses to high glucose concentrations, and alpha cells were identified by their [Ca^2+]i responses to kainate (glutamate receptor agonist) (8, 36).

human islets [4] = assay: Glucagon secretion from perifused human islets; type: cell-based
Source text: as §1, with “Islets and islets cells from Q:1 all species were cultured identically (37° C. and 5% CO2) inCMRL Q:2 medium-1066 (Invitrogen), niacinamide (10 mM; Sigma), ITS (BD Biosciences), Zn2SO4 (15 μM, Sigma), GlutaMAX (2 mM; Invitrogen), Hepes (25 mM; Sigma), FBS (10%; Invitrogen), and penicillinstreptomycin (100 IU/mL-100 μg/mL; Invitrogen).” left out
as §2

monkey islets = assay: Insulin secretion from perifused monkey islets; type: cell-based, cynomolgus monkeys (Macacca fascicularis); conditions: increasing ATP concentrations
Source text: as §1, with “Islets and islets cells from Q:1 all species were cultured identically (37° C. and 5% CO2) inCMRL Q:2 medium-1066 (Invitrogen), niacinamide (10 mM; Sigma), ITS (BD Biosciences), Zn2SO4 (15 μM, Sigma), GlutaMAX (2 mM; Invitrogen), Hepes (25 mM; Sigma), FBS (10%; Invitrogen), and penicillinstreptomycin (100 IU/mL-100 μg/mL; Invitrogen).” left out
as §2

Nc1ncnc2c1ncn2[C@@H]1O[C@H](COP(=O)(O)OP(=O)(O)OP(=O)(O)O)[C@@H](O)[C@H]1O [ATP]
EC50 (human P2X3 receptor): ~390 nM | insulin responses to the agonist in the nominal absence of extracellular Ca2+ (human islets [1]): reduced; also recorded: strongly diminished | insulin response of pig islets (pig islets [2]): No responses to ATP were observed; also recorded: neither ATP nor any of the other purinergic agonists tested stimulated insulin release | ATP concentrations required for activation of homomeric P2X7 receptors (P2X7 receptors): > 100 | EC50 (P2X7 receptors; read-out: EC50 for activation of P2X7 receptors): 100 µM | glucagon response of pig islets (pig islets [3]): difficult to discern | [Ca2+]i response of β cells to the agonist (human β cells; human β cells identified by response to high glucose (11 or 16 mM), recorded at 3 mM glucose, BzATP 50 μM): elicited repeatable [Ca^2+]i responses; also recorded: elicited large insulin and [Ca^2+]i, responses | [Ca2+]i responses to the agonist in the nominal absence of extracellular Ca2+ (human β cells; human β cells, nominal 0 Ca2+ (+1 mM EGTA)): reduced [Ca^2+]i responses to ATP | glucagon response of human islets (human islets [4]): stimulated small increases in glucagon secretion | insulin response of monkey islets (monkey islets): responded to increasing concentrations of ATP like human islets
